Residues, ends and D or L forms follow the SMILES beside them.
Columns and labels:
[1] = biological target: T1, rat lung ACE (Rattus norvegicus, UniProt P47820); experiment: In vitro degradation in the presence of rat lung ACE; type: in vitro ADME; settings: for percentage of peptide assayed relative to the control: peptide 100 nM, ground rat lung material 0.1 mg/ml, pH 7.5
T1 construct: incubated with ground rat lung material (at 0.1 mg/ml); from tissue; host or cells: rat lung (ground material)
T1 sequence (P47820 36-1313): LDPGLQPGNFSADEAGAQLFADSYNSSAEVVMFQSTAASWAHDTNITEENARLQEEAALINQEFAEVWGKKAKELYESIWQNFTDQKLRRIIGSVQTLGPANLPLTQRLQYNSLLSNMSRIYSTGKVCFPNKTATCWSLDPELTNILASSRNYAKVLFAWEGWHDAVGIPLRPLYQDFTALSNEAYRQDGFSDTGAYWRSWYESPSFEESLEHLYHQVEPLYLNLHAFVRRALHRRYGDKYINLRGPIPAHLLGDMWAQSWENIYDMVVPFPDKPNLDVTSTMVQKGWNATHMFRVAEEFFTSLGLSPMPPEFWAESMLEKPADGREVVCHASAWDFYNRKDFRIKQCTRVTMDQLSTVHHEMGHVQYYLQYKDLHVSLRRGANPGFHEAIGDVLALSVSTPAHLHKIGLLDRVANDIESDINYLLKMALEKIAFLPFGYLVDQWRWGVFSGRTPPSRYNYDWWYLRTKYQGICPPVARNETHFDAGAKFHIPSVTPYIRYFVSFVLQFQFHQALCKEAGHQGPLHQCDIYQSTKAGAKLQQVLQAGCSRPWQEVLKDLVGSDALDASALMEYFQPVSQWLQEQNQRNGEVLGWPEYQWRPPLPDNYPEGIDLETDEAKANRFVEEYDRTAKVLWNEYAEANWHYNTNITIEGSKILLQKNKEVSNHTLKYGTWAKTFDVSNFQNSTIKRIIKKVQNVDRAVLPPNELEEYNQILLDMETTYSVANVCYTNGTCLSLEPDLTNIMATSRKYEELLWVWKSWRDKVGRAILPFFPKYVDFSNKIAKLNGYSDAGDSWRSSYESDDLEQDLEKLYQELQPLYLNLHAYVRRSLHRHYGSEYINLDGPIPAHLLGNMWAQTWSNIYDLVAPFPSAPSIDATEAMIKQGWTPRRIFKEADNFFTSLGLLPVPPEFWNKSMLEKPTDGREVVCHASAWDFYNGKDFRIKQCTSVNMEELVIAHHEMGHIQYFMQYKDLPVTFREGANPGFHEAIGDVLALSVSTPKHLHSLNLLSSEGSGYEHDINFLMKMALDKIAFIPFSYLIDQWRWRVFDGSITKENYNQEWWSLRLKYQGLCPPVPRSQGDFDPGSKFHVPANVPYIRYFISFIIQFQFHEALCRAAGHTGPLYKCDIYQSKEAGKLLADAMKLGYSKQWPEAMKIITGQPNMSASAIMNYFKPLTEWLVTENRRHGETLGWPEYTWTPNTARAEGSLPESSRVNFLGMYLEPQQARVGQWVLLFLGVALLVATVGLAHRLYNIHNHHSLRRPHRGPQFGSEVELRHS
Description: The peptides (100 nM) were incubated with ground rat lung material (at 0.1 mg/ml) or human converting enzyme (5 mU final concentration) in the presence or absence of captopril (10 μM final concentration) in 0.1 M Tris/HCl buffer+0.3 mM NaCl, pH=7.5. A control comprising only the peptides in the presence of 0.1 M Tris/HCl buffer+0.3 mM NaCl, pH=7.5, was carried out.
A methanol extraction was carried out in order to stop the reaction. At each time, the concentration of the nondegraded peptide was measured by enzyme immunoassay.
The results were expressed as percentage of peptide assayed relative to the control for each sample time.

[2] = cited from earlier work
[3] = system: plasma proteins; settings: cited from earlier work
[4] = biological target: N-terminal site of ACE (Homo sapiens, UniProt P12821); settings: AcSDKP as substrate, in vitro; cited from earlier work
[5] = biological target: T2, ACE present in mouse plasma (Mus musculus, UniProt P09470); settings: cited from earlier work
T2 construct: host or cells: mouse plasma
T2 sequence (P09470 35-1237 limits assumed): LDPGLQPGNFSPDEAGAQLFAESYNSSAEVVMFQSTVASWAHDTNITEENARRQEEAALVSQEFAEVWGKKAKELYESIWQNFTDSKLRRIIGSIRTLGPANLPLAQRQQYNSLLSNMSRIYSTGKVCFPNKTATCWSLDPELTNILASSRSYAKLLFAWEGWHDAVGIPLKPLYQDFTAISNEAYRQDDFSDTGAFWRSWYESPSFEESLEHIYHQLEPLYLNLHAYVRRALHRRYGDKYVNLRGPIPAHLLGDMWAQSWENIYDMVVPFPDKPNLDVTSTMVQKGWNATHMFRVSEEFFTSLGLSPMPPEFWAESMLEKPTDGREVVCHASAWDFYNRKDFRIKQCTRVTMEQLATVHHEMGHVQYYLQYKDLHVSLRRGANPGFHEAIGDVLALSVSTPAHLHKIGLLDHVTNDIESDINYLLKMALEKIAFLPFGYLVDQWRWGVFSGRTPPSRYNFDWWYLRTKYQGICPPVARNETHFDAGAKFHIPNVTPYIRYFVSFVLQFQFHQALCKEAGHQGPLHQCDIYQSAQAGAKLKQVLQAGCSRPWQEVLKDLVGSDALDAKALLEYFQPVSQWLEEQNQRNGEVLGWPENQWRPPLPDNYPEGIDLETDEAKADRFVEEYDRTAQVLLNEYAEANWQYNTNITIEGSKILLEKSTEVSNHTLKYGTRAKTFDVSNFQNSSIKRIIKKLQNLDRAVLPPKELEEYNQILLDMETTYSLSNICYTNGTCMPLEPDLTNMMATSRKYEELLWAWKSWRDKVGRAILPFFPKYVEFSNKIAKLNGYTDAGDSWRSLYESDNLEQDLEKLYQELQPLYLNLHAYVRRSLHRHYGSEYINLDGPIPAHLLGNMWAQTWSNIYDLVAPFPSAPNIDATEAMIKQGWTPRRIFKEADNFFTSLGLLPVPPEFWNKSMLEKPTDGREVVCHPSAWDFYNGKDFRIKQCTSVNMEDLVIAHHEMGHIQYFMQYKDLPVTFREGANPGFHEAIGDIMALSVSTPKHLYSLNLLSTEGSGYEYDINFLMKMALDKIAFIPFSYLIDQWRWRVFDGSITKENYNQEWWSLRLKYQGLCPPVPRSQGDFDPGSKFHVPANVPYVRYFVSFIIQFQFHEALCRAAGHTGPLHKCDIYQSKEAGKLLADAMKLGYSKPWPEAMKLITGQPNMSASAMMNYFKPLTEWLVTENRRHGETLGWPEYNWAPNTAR

[6] = cited from earlier work; remark: listed apart in the source

Chain of N-terminal site of ACE (P12821 40-624 limits assumed): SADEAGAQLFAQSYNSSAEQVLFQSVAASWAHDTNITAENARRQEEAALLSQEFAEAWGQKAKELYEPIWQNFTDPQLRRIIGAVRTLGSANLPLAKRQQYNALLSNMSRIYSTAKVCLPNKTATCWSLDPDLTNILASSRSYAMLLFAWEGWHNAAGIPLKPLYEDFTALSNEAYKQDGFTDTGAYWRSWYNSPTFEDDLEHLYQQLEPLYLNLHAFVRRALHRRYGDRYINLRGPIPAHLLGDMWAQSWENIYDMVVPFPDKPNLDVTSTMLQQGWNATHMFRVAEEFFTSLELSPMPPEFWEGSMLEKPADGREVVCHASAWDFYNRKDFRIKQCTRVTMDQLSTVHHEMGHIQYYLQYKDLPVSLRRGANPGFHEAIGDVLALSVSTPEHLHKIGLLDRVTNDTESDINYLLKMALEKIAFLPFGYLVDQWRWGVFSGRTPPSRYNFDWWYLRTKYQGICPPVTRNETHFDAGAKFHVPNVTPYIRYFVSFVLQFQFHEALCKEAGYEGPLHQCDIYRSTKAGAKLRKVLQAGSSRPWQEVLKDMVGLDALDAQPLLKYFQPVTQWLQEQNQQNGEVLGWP

Row | concentrations found ([1]; in vitro, relative to control) | percentage of peptide assayed relative to the control ([1]; T60 min, + captopril 10 μM) | percentage of peptide assayed relative to the control ([1]; T240 min, + captopril 10 μM) | percentage of peptide assayed relative to the control ([1]; T240 min, without captopril) | Structure (SMILES) | degradation by rat ACE ([1]; in vitro) | percentage of peptide assayed relative to the control ([1]; T30 min, + captopril 10 μM) | concentration in the plasma, minimum value ([2]; between two 50 mg doses of captopril) | urinary clearance relative to endogenous creatinine clearance ([2]; with an ACE inhibitor) | bound to the plasma proteins [3] | catalytic effectiveness of N-terminal site of ACE relative to C-terminal site [4] | degradation by the ACE present in mouse plasma [5] | modification after 3 freezing-thawing cycles [6]
1 | – | – | – | – | CC(=O)N[C@@H](CO)C(=O)N[C@@H](CC(=O)O)C(=O)N[C@@H](CCCCN)C(=O)N1CCC[C@H]1C(=O)O [AcSDKP, N-acetyl-Ser-Asp-Lys-Pro] (Ac-SDKP-OH; C-terminus assumed) | degraded | 129% | 2 nM | 69±27% | < 1% | 50 times | – | –
2 | 100±25% | 65% | 136% | 126% | CC(=O)N[C@@H](CO)C(=O)N[C@@H](CC(=O)O)C(=O)N[C@@H](CCCCN)C(=O)N1CCC[C@H]1C(N)=O [AcSDKP-NH2, N-acetyl-Ser-Asp-Lys-Pro-NH2] (Ac-SDKP-NH2) | does not appear to be degraded | 125% | – | – | – | – | not degraded | no adverse modification
